According to patent US10227350B2 (Gilead Sciences, Inc., priority 2016, dated 2019):

Biological target: PI3Kβ (Homo sapiens (Human), UniProt P42338)
Experiment: TR-FRET enzymatic activity assay, PI3Kβ
Type: biochemical
Conditions: 2× Km ATP, 2 μM PIP2, 30 minutes at 25° C., read-out: IC50-PIP-Beta
Procedure, shortened: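 Purified recombinant heterodimeric PI3Kβ; PIP3 formation read by TR-FRET as competition with fluorescent tracer for GRP-1 PH domain binding. Compounds incubated 30 min at 25 °C.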

Chain of PI3Kβ (P42338 whole entry): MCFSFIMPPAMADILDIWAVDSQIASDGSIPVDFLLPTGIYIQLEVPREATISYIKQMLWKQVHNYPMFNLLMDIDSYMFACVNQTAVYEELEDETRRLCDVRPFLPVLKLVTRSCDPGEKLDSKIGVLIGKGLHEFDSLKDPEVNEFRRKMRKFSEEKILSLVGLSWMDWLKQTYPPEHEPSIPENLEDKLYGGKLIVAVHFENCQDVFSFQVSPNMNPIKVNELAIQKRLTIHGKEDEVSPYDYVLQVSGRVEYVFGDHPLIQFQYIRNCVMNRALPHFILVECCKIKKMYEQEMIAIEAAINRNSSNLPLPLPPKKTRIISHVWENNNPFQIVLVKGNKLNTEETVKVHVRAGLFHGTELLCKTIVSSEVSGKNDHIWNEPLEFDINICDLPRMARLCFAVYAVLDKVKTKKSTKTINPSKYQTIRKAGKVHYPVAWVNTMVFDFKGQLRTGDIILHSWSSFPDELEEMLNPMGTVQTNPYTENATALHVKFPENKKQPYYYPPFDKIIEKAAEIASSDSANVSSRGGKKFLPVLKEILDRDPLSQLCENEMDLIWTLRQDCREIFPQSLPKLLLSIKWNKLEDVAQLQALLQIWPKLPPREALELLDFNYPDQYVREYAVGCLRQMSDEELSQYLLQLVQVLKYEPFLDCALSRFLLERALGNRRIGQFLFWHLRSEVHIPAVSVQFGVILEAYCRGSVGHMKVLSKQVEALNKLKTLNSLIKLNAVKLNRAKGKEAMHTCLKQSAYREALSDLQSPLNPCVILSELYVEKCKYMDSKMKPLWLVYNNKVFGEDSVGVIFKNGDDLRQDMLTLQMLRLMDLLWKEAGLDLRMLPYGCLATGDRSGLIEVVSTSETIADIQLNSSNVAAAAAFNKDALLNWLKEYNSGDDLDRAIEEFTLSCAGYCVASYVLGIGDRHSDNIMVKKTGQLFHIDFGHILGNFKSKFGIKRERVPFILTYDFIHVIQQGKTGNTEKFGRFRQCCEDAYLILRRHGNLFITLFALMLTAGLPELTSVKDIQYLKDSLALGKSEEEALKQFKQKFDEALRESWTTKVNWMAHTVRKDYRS
Chain of PI3Kβ (P27986 whole entry partner): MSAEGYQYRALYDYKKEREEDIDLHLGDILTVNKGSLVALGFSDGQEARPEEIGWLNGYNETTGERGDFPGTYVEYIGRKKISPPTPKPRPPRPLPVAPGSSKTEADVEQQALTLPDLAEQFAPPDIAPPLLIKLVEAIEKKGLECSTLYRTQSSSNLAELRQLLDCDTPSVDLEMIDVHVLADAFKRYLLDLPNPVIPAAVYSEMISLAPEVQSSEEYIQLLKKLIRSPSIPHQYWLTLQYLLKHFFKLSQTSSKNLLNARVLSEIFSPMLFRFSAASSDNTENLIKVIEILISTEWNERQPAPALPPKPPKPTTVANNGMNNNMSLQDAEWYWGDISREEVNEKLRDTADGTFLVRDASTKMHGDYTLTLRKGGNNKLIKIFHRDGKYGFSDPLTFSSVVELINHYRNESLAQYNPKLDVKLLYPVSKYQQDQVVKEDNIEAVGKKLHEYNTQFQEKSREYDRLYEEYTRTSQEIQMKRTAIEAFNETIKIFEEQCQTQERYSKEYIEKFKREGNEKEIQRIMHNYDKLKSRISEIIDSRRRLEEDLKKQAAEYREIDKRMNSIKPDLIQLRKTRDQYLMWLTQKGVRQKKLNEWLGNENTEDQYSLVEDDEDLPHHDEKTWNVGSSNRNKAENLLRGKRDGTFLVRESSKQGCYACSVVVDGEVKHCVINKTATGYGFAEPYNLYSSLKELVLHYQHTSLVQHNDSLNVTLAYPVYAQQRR

Q: `Fc1nccc(-c2cc(-c3nnc[nH]3)c3ncn(-c4cc(N5CCNCC5)nc5ccccc45)c3c2)c1F` [Example 164, 4-(6-(2,3-difluoropyridin-4-yl)-4-(4H-1,2,4-triazol-3-yl)-1H-benzo[d]imidazol-1-yl)-2-(piperazin-1-yl)quinoline] was tested. Which IC50 did it give?
A: 10 nM

Q: Which IC50 does the source give for `Fc1nccc(-c2ccc3ncn(-c4cc(N5CCNCC5)nc5ccccc45)c3c2)c1F` [Example 165, 4-(6-(2,3-difluoropyridin-4-yl)-1H-benzo[d]imidazol-1-yl)-2-(piperazin-1-yl)quinoline] here?
A: 480 nM

Q: How did the IC50 turn out when `N#Cc1cc(-c2cc(-c3nnc[nH]3)c3ncn(-c4cc(-c5cn[nH]c5)nc5ccccc45)c3c2)ccn1` [Example 166, 4-(1-(2-(1H-pyrazol-4-yl)quinolin-4-yl)-4-(4H-1,2,4-triazol-3-yl)-1H-benzo[d]imidazol-6-yl)picolinonitrile] was run?
A: 70 nM

Q: How did the IC50 turn out when `N#Cc1cc(-c2cc(-c3nnc[nH]3)c3ncn(-c4cc(N5CCNCC5)nc5ccccc45)c3c2)ccn1` [Example 167, 4-(1-(2-(piperazin-1-yl)quinolin-4-yl)-4-(4H-1,2,4-triazol-3-yl)-1H-benzo[d]imidazol-6-yl)picolinonitrile] was run?
A: 10 nM
